Measurements: US20180177849A1, “Therapeutic Uses of Elsiglutide” (HELSINN HEALTHCARE SA, priority 2015, published 2018)

Columns and labels:
[1] = system: rats bearing colon tumors and xenografts bearing human colon carcinoma, HCT8 and HT-29; assay: Antitumor activity in tumor-bearing rodents; type: in vivo; details: 5-FU/irinotecan alone
Protocol: (§1) Studies were carried out in normal rats, rats bearing colon tumors and xenografts bearing human colon carcinoma, HCT8 and HT-29. Studies were carried out to test the hypothesis that elsiglutide offers selective protection against 5-Fluorouvacil-(5-FU) and irinotecan-induced toxicities and potentially enhances their antitumor activity. Elsiglutide was administered subcutaneously at non-toxic but therapeutically-effective dose of 1.8 mg/kg/day daily for 4 days, 30 min prior to each 5-FU/irinotecan dose. The tested doses of 5-FU were 100 mg/kg (MTD) and 200 mg/kg, and the doses of irinotecan were 100 mg/kg (MTD) and 200 mg/kg, either daily ×3 or weekly ×4.

[2] = system: Fischer rats; assay: Survival / drug induced lethality; type: in vivo, rat; details: for rats died because of toxicity: days 6 and 7
Protocol: (§2) Elsiglutide was administered by subcutaneous (S.C) route at 1.8 mg/kg/day once a day for 4 days. Three doses were administered 30 minutes prior to each daily intravenous (I.V) dose of irinotecan. Only the fourth dose of elsiglutide was administered 24 hours after the last dose of irinotecan. Irinotecan was administered by intravenous (I.V) injection at the maximum tolerated and therapeutic dose, 100, 150, 200 mg/kg/day for 3 days.
10 rats were assessed for survival up to 4 weeks after treatments. During the study, the kinetics of drug induced toxicities in animals (weight loss/gain, stomatitis, lethality were monitored daily during the first 2 weeks then twice a week thereafter up to 4 weeks in the survival phase. At the end of the survival phase the rats were sacrificed.
(§3) Treatment groups and time when specific acquisition of tissues was obtained are outlined below. Fischer Rats (Female), weighing 150 to 180 g (8-12 weeks) were utilized. • Control, histology, d 9 and CBC, baseline, day 4 and day 9 • Control vehicle, histology, d 9 and CBC baseline, d 4 and d 9 • Irinotecan 100 mg/kg/d×3, I.V., histology, d 9 and CBC, baseline, d 4 and d 9 • Irinotecan 150 mg/kg/d×3, I.V., histology, d 9 and CBC, baseline, d 4 and d 9, and CBC, baseline, d 4 and d 9 • Irinotecan 200 mg/kg/d×3, I.V., histology 9, and CBC, d 4 and d 9 • Elsiglutide 1.8 mg/kg/d×4, S.C., histology, d 9 and CBC, baseline, d 4 and d 9 • CBC, baseline, d 4 and d 9 • Elsiglutide 1.8 mg/d×4, S.C+Irinotecan 150 mg/kg/d×3, I.V, histology, d 9, and CBD baseline, d 4 and d9 • Elsiglutide 1.8 mg/d×4, S.C.+Irinotecan 200 mg/kg/d×3, I.V, histology, d 9, and CBC d 4 and d 9 Each treatment groups consisted of 10 rats for histology of bone marrow, spleen and peripheral blood analysis, and for survivors. Evaluation of peripheral blood was carried out on day zero (0), four (4) and day nine (9), bone marrow and spleen analysis after (necropsy) was carried out on day nine (9).

[3] = system: bone marrow of rat sternum; assay: Histopathological evaluation of sternum bone marrow; type: in vivo; details: Group 8, irinotecan 200 mg/kg i.v.; 5 dead animals
Protocol: (§4) The spleen and bone marrow of sternum of untreated Fischer rats and rats treated with irinotecan with 100, 150 and 200 mg/kg/d×3 alone and in combination with Elsiglutide (1.8 mg/kg/d×4) were examined histologically.
(§5) Histologic analysis using sternum bone marrow and spleen were carried out on day 9 (6 days after the administration of the last irinotecan dose on day 3). Bone marrow and spleen specimens were fixed in buffered formalin (10%) for 48 hours. The entire sternum and spleen were removed during autopsy at the end of the experiments on day 9. The samples were put in 10% buffered formalin for 48 hours in order to get appropriate fixation. After that the sternum was decalcified in a Rapid Decalcifier (RDO) from Apex Engineering Products Corporation (Aurora, Ill., USA) for 17 minutes when the sternum could be bent easily with fingers. When decalcification was complete, samples were taken out of solution and put under cold running water for 60 minutes to remove the decalcification solution containing hydrochloric acid as an active ingredient. Then the decalcified bone marrow and spleen specimen were processed, embedded in paraffin, cut (5 u) and stained conventionally with hematoxylin and eosin (HE). The HE stained slides were used for general orientation and evaluation under light microscope using various magnifications. […]

[4] = Protection against 5-FU- and irinotecan-induced toxicities; design: species or system mice and rats; details: in vivo; daily ×3 or weekly ×4
Protocol: as §1

[5] = system: spleen of Fischer rats; assay: Histopathological evaluation of spleen; type: in vivo, rat; details: Group 8, irinotecan 200 mg/kg i.v.; 5 dead animals
Protocol: as §4, §5

[6] = system: Fischer rats; assay: Complete blood cell count (CBC) analysis of peripheral blood; type: in vivo, rat
Protocol: 8 to 12-week-old female Fischer 344/N rats (body weight 160-200 g) were obtained from Harlan Sprague Dawley Inc. (Indianapolis, Ind.).
Irinotecan was purchased as a ready-to-use formulation solution at a concentration of 20 mg/ml (100 mg in a 5 ml vial). For a rat of 150-200 g, an administration up to 2 ml solution (dose of 200 mg/kg/d×3) was required.
as §2
Hematological (CBC) Analysis • Complete blood cell count (CBC) analysis (days 0, 4, and 9) • From peripheral blood 14 markers, WBC (differential: neutrophils, lymphocytes, eosinophils, monocytes, basophils) and RDW-SD, RBC, HGB, HCT, MCV, MCH, MCHC, and Platelets were analyzed.
The statistical analysis of complete blood cells (CBC) results was carried out. The differences between the mean values in the different treatment groups were analyzed for significance.
as §3

[7] = enzymatic degradation by DPP IV in addition to renal clearance; cited from earlier work
[8] = irinotecan 200 mg/kg/day × 3, 5 dead rats, day 6 and day 7

CCc1c2c(nc3ccc(OC(=O)N4CCC(N5CCCCC5)CC4)cc13)-c1cc3c(c(=O)n1C2)COC(=O)[C@]3(O)CC [Irinotecan]
overall tumor growth inhibition [1]: 30% | rats died ([2]; Group 5, irinotecan 150 mg/kg i.v., day 8, 5 rats per group): One | animals died with severe diarrhea ([2]; Group 8, irinotecan 200 mg/kg i.v., day 7): One | rats in moribund condition with acute diarrhea ([2]; Group 8, irinotecan 200 mg/kg i.v., sacrificed before day 9): 4 | rats died because of toxicity ([2]; irinotecan 150 mg/kg/d×3): 10% | rats died because of toxicity ([2]; irinotecan 200 mg/kg/d×3): Fifty | animals which survived treatment ([2]; irinotecan 200 mg/kg/d×3 alone or in combination with elsiglutide): 50% | decrease (myelosuppression) in hematopoiesis of sternum bone marrow [3]: 95-98% | MTD [4]: 100 mg/kg | extramedullary hematopoiesis in spleen [5]: did not show any sign of extramedullary hematopoiesis | Platelet/Group ([6]; FIG. 1, Day 4): did not change | RBC/Group ([6]; FIG. 1, Day 4): did not change | WBC/group ([6]; FIG. 1, Day 4, after each dose of irinotecan): decreased | WBC/group ([6]; FIG. 1, Day 9, irinotecan alone treated group): did not reach the normal level | Platelet/Group count ([6]; FIG. 1, after 200 mg/kg irinotecan): decreased | Eosinophils Mean Value [6, 8]: 0.42 | Lymphocytes Mean Value [6, 8]: 1.55 | Monocytes Mean Value [6, 8]: 0.05 | WBC Mean Value [6, 8]: 2.18 10^3/µL | MCV Mean Value ([6]; irinotecan 200 mg/kg/day × 3, 5 dead rats, day 6 and day 7, in fL (unit assumed)): 47.96 | MCHC Mean Value ([6]; irinotecan 200 mg/kg/day × 3, 5 dead rats, day 6 and day 7, in g/dL (unit assumed)): 36.52

Glucagon-like-peptide-2 [GLP-2(1-33)]
half-life [7]: about 7 minutes

O=c1[nH]cc(F)c(=O)[nH]1 [5-FU, 5-fluorouracil]
overall tumor growth inhibition [1]: 30% | MTD [4]: 100 mg/kg
